“And” between values parts separate entries of the source, which are not always exact repeats. Equal values may be shown once. Inconclusive results and toxic doses are left out.
System: B6C3F1 mice, B16 melanoma ip, median survival T/C
Test: NCI In Vivo Anticancer Drug Screen. Data for tumor model B16 Melanoma (intraperitoneal) in B6C3F1 mice
Conditions: endpoint: median survival time, schedule: Q01DX009 (ip), higher = longer survival
Method in brief: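 Antitumor effect was judged in mice with transplanted tumors by dividing the treated group's survival measure by that of vehicle controls.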

[1] = dose: 0.78 mg/kg/injection, vehicle: saline
[2] = dose: 1.56 mg/kg/injection, vehicle: saline
[3] = dose: 3.12 mg/kg/injection, vehicle: saline
[4] = dose: 6.25 mg/kg/injection, vehicle: saline
[5] = dose: 100.0 mg/kg/injection, vehicle: Klucel (hydroxypropylcellulose) (HPC)
[6] = dose: 200.0 mg/kg/injection, vehicle: Klucel (hydroxypropylcellulose) (HPC)
[7] = dose: 12.5 mg/kg/injection, vehicle: saline with Tween-80
[8] = dose: 25.0 mg/kg/injection, vehicle: saline with Tween-80
[9] = dose: 50.0 mg/kg/injection, vehicle: saline with Tween-80
[10] = dose: 100.0 mg/kg/injection, vehicle: saline with Tween-80
[11] = dose: 200.0 mg/kg/injection, vehicle: saline with Tween-80
[12] = dose: 6.25 mg/kg/injection, vehicle: saline with Tween-80
[13] = dose: 50.0 mg/kg/injection, vehicle: saline

C/C=C(\C)C(=O)N[C@@H](c1ccccc1)[C@@H](O)C(=O)OC1C[C@@]2(O)[C@@H](OC(=O)c3ccccc3)[C@@H]3[C@]4(OC(C)=O)CO[C@@H]4C[C@H](O)[C@@]3(C)C(=O)[C@H](OC(C)=O)C(=C1C)C2(C)C (some centres undefined)
T/C (dose: 0.5 mg/kg/injection, vehicle: saline + Tween-80 + alcohol): 113 % of control
T/C (dose: 1.0 mg/kg/injection, vehicle: saline + Tween-80 + alcohol): 106 % of control
T/C (dose: 4.0 mg/kg/injection, vehicle: saline + Tween-80 + alcohol): 172 % of control

COc1cc2c(c(OC)c1OC)-c1c(cc3c(c1OC)OCO3)CC(C)C(C)(O)C2OC(=O)c1ccccc1 (centres undefined)
T/C (dose: 25.0 mg/kg/injection, vehicle: saline + Tween-80 + alcohol): 107 % of control
T/C (dose: 50.0 mg/kg/injection, vehicle: saline + Tween-80 + alcohol): 98 % of control
T/C (dose: 100.0 mg/kg/injection, vehicle: saline + Tween-80 + alcohol): 115 % of control
T/C (dose: 200.0 mg/kg/injection, vehicle: saline + Tween-80 + alcohol): 110 % of control

C[CH2][Sn]([CH2]C)([O]S(C)(=O)=O)[O]S(C)(=O)=O
T/C [1]: 92 % of control
T/C (dose: 0.79 mg/kg/injection, vehicle: saline): 102 % of control
T/C [2]: 98 % of control and 103 % of control
T/C [3]: 97 % of control and 103 % of control
T/C [4]: 108 % of control and 96 % of control
T/C (dose: 12.5 mg/kg/injection, vehicle: saline): 91 % of control and 99 % of control

CSc1cc(C)[o+]c(C)c1
T/C (dose: 12.5 mg/kg/injection, vehicle: Klucel (hydroxypropylcellulose) (HPC)): 106 % of control
T/C (dose: 25.0 mg/kg/injection, vehicle: Klucel (hydroxypropylcellulose) (HPC)): 105 % of control
T/C (dose: 50.0 mg/kg/injection, vehicle: Klucel (hydroxypropylcellulose) (HPC)): 106 % of control
T/C [5]: 109 % of control
T/C [6]: 101 % of control

CCCCCCCCCCCCCCCCS(=O)CC(O)COC(=O)c1ccc(C(=O)OCC(O)CS(=O)CCCCCCCCCCCCCCCC)cc1 (centres undefined)
T/C (dose: 12.5 mg/kg/injection, vehicle: saline + alcohol): 100 % of control
T/C (dose: 25.0 mg/kg/injection, vehicle: saline + alcohol): 86 % of control
T/C (dose: 50.0 mg/kg/injection, vehicle: saline + alcohol): 87 % of control

CN1CCN(c2ccc([N+](=O)[O-])c3no[n+]([O-])c23)CC1
T/C (dose: 2.5 mg/kg/injection, vehicle: saline with Tween-80): 101 % of control
T/C (dose: 5.0 mg/kg/injection, vehicle: saline with Tween-80): 111 % of control
T/C (dose: 20.0 mg/kg/injection, vehicle: saline with Tween-80): 95 % of control

OCCO
T/C (dose: 0.25 % in 0.5 ml injection vol, vehicle: water): 97 % of control
T/C (dose: 0.5 % in 0.5 ml injection vol, vehicle: water): 96 % of control

O=c1nc(Oc2ccccc2)nc2ncccn12
T/C (dose: 3.12 mg/kg/injection, vehicle: saline with Tween-80): 108 % of control and 101 % of control and 102 % of control

O=C1OCC2C(=O)OCC12 (centres undefined)
T/C [7]: 99 % of control
T/C [8]: 99 % of control
T/C [9]: 102 % of control
T/C [10]: 101 % of control
T/C [11]: 106 % of control

O=C(O)CC(=O)O.[NH-]CC[NH-].[Pt+2]
T/C (dose: 12.5 mg/kg/injection, vehicle: dextrose): 175 % of control
T/C (dose: 25.0 mg/kg/injection, vehicle: dextrose): 86 % of control

Nc1nc(N)c2cc(S(=O)(=O)c3ccccc3)ccc2n1
T/C [8]: 88 % of control
T/C [9]: 103 % of control and 105 % of control
T/C [11]: 153 % of control and 171 % of control

COc1cc([C@@H]2c3cc4c(cc3[C@H](OC3OC5COC(c6ccccc6)OC5C(O)C3O)[C@H]3COC(=O)[C@H]23)OCO4)cc(OC)c1OC (some centres undefined)
T/C [12]: 123 % of control
T/C [8]: 154 % of control
T/C [9]: 169 % of control and 177 % of control

CC(C)n1cnc2c(Cl)ncnc21
T/C [8]: 88 % of control
T/C [9]: 104 % of control
T/C [10]: 87 % of control

NC(=O)Oc1cccc(OC(N)=O)c1
T/C (dose: 12.5 mg/kg/injection, vehicle: distilled water + Tween-80): 108 % of control
T/C (dose: 25.0 mg/kg/injection, vehicle: distilled water + Tween-80): 107 % of control
T/C (dose: 50.0 mg/kg/injection, vehicle: distilled water + Tween-80): 99 % of control
T/C (dose: 100.0 mg/kg/injection, vehicle: distilled water + Tween-80): 96 % of control
T/C (dose: 200.0 mg/kg/injection, vehicle: distilled water + Tween-80): 113 % of control
T/C (dose: 400.0 mg/kg/injection, vehicle: distilled water + Tween-80): 105 % of control

CCN(CC)C(=S)S
T/C [13]: 92 % of control
T/C (dose: 50.0 mg/kg/injection, vehicle: sodium bicarbonate): 105 % of control
T/C (dose: 100.0 mg/kg/injection, vehicle: saline): 96 % of control
T/C (dose: 100.0 mg/kg/injection, vehicle: sodium bicarbonate): 92 % of control
T/C (dose: 200.0 mg/kg/injection, vehicle: saline): 102 % of control
T/C (dose: 200.0 mg/kg/injection, vehicle: sodium bicarbonate): 105 % of control
T/C (dose: 400.0 mg/kg/injection, vehicle: saline): 94 % of control
T/C (dose: 400.0 mg/kg/injection, vehicle: sodium bicarbonate): 105 % of control
T/C (dose: 800.0 mg/kg/injection, vehicle: saline): 95 % of control
T/C (dose: 800.0 mg/kg/injection, vehicle: sodium bicarbonate): 95 % of control

CCC(C(=O)O)C(=O)O.[NH2-].[NH2-].[Pt+2]
T/C [2]: 117 % of control
T/C [3]: 102 % of control
T/C [4]: 102 % of control
T/C (dose: 25.0 mg/kg/injection, vehicle: saline): 154 % of control
T/C [13]: 102 % of control

Cc1cc(NCCCN(C)C)c2ccc3c(ccc4c(NCCCN(C)C)cc(C)nc43)c2n1
T/C (dose: 0.19 mg/kg/injection, vehicle: saline): 114 % of control
T/C (dose: 0.39 mg/kg/injection, vehicle: saline): 102 % of control
T/C [1]: 91 % of control
T/C [2]: 106 % of control
T/C [3]: 113 % of control and 102 % of control

Cc1c2ccccc2c(C)c2c1ccc1ccccc12
T/C (dose: 1.0 mg/kg/injection, vehicle: saline with Tween-80): 99 % of control
T/C (dose: 2.0 mg/kg/injection, vehicle: saline with Tween-80): 106 % of control
T/C (dose: 4.0 mg/kg/injection, vehicle: saline with Tween-80): 122 % of control
T/C (dose: 8.0 mg/kg/injection, vehicle: saline with Tween-80): 113 % of control
T/C (dose: 16.0 mg/kg/injection, vehicle: saline with Tween-80): 86 % of control

Cc1cc(=O)n2c3c(c4c(cc13)c(CN(C)C)cc(=O)n4C)OC2
T/C [12]: 105 % of control
T/C [7]: 98 % of control
T/C [8]: 100 % of control
T/C [9]: 111 % of control

CC1([CH2][Hg][I])COCC([CH2][Hg][I])O1 (centres undefined)
T/C (dose: 5.0 mg/kg/injection, vehicle: Klucel (hydroxypropylcellulose) (HPC)): 100 % of control
T/C (dose: 10.0 mg/kg/injection, vehicle: Klucel (hydroxypropylcellulose) (HPC)): 102 % of control
T/C (dose: 20.0 mg/kg/injection, vehicle: Klucel (hydroxypropylcellulose) (HPC)): 86 % of control

CC(C)(C)OC(=O)NC(CCCNC(=O)OCc1ccccc1)C(=O)O (centres undefined)
T/C [5]: 110 % of control
T/C [6]: 104 % of control
T/C (dose: 400.0 mg/kg/injection, vehicle: Klucel (hydroxypropylcellulose) (HPC)): 98 % of control

Reference: PubChem BioAssay AID200 (DTP/NCI, 2004)
